The term EC50 denotes the concentration at which the effect is half-maximal.

From US9566265B2, “Carbazole compounds and therapeutic uses of the compounds” (Incuron, LLC, priority 2008, dated 2017) come the findings set out here.

≈ marks a conversion by molar mass, not a printed value. Where two headings read alike, the source gives them in different places.

The test system of one data set is p53. Put plainly: p53 activation assay, p53 responsive luciferase reporter cell line. It is filed as cell-based, human. The note with it: Homo sapiens, 16 h, HT1080-L or RCC45ConALuc reporter cells, 16 h; read-out: EC50 value (p53 activation). On the technique in general: Reporter assays use an easily measured gene product as a stand-in for the process of interest.

In another data set the test system is C. tropicalis. Put plainly: microbe, parasite or virus in culture. It counts as cell-based. The note with it: Candida tropicalis. The source says:
Candida spp. strains: 20 Candida spp. clinical isolates and one laboratory control strain (C. albicans SC5314) was used in the study. In the collection were included:
2 C. tropicalis strains, one ATCC control strain (ATCC 750), and one echinocandin cross-resistant (T3) (11).

Another data set relates to C. guilliermondii. Briefly: in vitro susceptibility CLSI M27A3, MIC. It counts as cell-based. The note with it: Meyerozyma guilliermondii, strain ATCC6260, WT, Echinocandin cross-reduced susceptibility. The text has this:
(§1) (12): 1 C. orthopsilosis (981224), 1 C. metapsilosis (2006-113), C. parapsilosis (ATCC 22019 CLSI control), and C. guilliermondii (ATCC6260) (13).

A further data set deals with C. metapsilosis. Put plainly: in vitro susceptibility CLSI M27A3, MIC. It counts as cell-based. Conditions: Lodderomyces metapsilosis, strain 2006-113, WT, Echinocandin cross-reduced susceptibility.
Text: as §1

In data set [1] the test system is HCT-116, DLD1, Caki1 and MDA-MB-231 tumors. Put plainly: various human tumour xenografts sc. The note with it: tumor cells inoculated as a cell suspension. It counts as in vivo, nude or SCID mice. In general terms: In xenograft studies the graft and the host belong to different species.
Method: In this study, the antitumor effect and toxicity of the three carbazoles against HCT-8 and HT29 colon cancer tumors were compared with treatment beginning when the tumor size reached 150-200 mg (about 7 days after tumor transplantation).
The test system of data set [2] is Caki1 human renal cell carcinoma cells. Put plainly: Caki1 renal cell carcinoma xenograft efficacy test.
Method: In an efficacy test using these three compounds, athymic nude mice were inoculated subcutaneously with a suspension of Caki1 human renal cell carcinoma cells into both rear flanks. When at least one tumor in a mouse reached 20-50 mm^3, treatment was commenced. […] As a positive control, one group was treated with 40 mg/kg Sunitinib, an approved drug for the treatment of renal cell carcinoma. Treatment was given for 4 weeks on a 5 day on/2 day off schedule. After treatment was completed, mice were monitored for an additional 4 weeks to determine how quickly tumor growth returned to normal.

Turning to `CCN(CC)CCn1c2ccc3c(c2c2c4c(ccc21)C(=O)CC4)CCC3=O` [Example 15], the EC50 with p53 came to 30 nM. Besides, the MIC was determined as 0.08 µM (≈ 0.03 µg/mL) in the data set on C. tropicalis (strain ATCC750, WT, Susceptible, read-out: MIC* (24 hs)); 0.16 µM (≈ 0.0599 µg/mL) with C. tropicalis (strain ATCC750, WT, Susceptible, read-out: MIC* (48 hs)); 0.04 µM (≈ 0.015 µg/mL) in the data set on C. tropicalis (strain T3, Fks1pS645S/P, Echinocandin cross-resistant, read-out: MIC* (24 hs)); 0.08 µM (≈ 0.03 µg/mL) with C. tropicalis (strain T3, Fks1pS645S/P, Echinocandin cross-resistant, read-out: MIC* (48 hs)); 0.08 µM (≈ 0.03 µg/mL) in the data set with C. guilliermondii (read-out: MIC* (24 hs)); 0.16 µM (≈ 0.0599 µg/mL) in the data set with C. guilliermondii (read-out: MIC* (48 hs)). The MIC in the data set with C. metapsilosis (read-out: MIC* (24 hs)) and in the data set on C. metapsilosis (read-out: MIC* (48 hs)) was 0.16 µM (≈ 0.0599 µg/mL) in each case. Also, the “antitumor efficacy” value in data set [1] was “antitumor efficacy”. In data set [2] (5 mg/kg oral, short-term), the weight loss is 10-15%. Besides, the “tumor growth inhibition compared to the vehicle control” value in data set [2] (Day 24 (end of treatment), oral gavage 5 day on/2 day off, Example 7 30, Example 15 5, Example 13 25, Sunitinib 40 mg/kg) worked out at 50%.
